The nature of series [1]: Chemical characteristics of composition A′, concentrated and diluted forms. Format: physicochemical. Here is the method: Several tests were conducted to determine the chemical characteristics of composition A′, both in concentrated and diluted forms. […] All liquid nanodomain droplets range in size from 5 to 20 nm. The pH of both the concentrate and diluted formulations is between 6.0 and 7.5.

For series [2] the following is noted: rat, 120 mg/kg dose; cited from earlier work.

Broadly, the logP is the decadic logarithm of the partition coefficient of the neutral form, usually between octanol and water. Read a high logP as a more lipophilic compound. In the case of `C=C(C)[C@@H]1CCC(C)=C[C@H]1c1c(O)cc(CCCCC)cc1O` [CBD, 2-(1R,6R)-3-methyl-6-prop-1-en-2-ylcyclohex-2-en-1-yl-5-pentylbenzene-1,3-diol], the logP in series [1] is 6. For the same molecule, the “Association of CBD with formulation phases during storage” value in series [1] (both concentrated and diluted forms of composition A′) was “remained associated with the surfactant and lipid phases”. The T1/2 in series [2] was 4 to 5 h.

These data come from patent publication US20250170153A1, “METHODS FOR THE TREATMENT OF ANXIETY DISORDER” (ANANDA SCIENTIFIC, INC., priority 2022, published 2025).
